From patent US4710571A, “1H-imidazol-1-ethanol esters” (Gist-Brocades N.V., priority 1983, dated 1987)
Where a name gives a salt, the structure may show the parent alone.

Key:
ear sebaceous glands = assay: lipid (sebum) synthesis in ear sebaceous glands of androgen-stimulated female hamsters, ear biopsies incubated with radioactive acetate; assay type: in vivo, hamster; conditions: for inhibition in vivo at 500 µg/day: dose 500 μg per day; for inhibition in vivo at 500 µg/day / inhibition in vivo at 100 µg/day / lipid synthesis inhibition: androgen-stimulated female hamsters, percentages may rise over 100%; for inhibition in vivo at 100 µg/day / lipid synthesis inhibition: dose 100 μg per day
Procedure: The sebum synthesis inhibiting activities of 1H-imidazole-1-ethanol and the esters of formula I were established in a number of animal species and particularly in the hamster much research has been carried out. Androgens administered to female hamsters stimulate the sebum synthesis in ear sebaceous glands and the extent of sebum synthesis is determined by incubating ear biopsies with radioactive acetate (Hall D. W. R. et al, Hormonal Control of Hamster Ear Sebaceous Gland Lipogenesis, Arch. Dermatol Res., 275, 1 (1983)). The test was based on the conversion of the added radioactive acetate into lipids which after extraction with hexane can be determined in a scintillation counter. In the following Table, the inhibition percentages of a number of substances are shown and the percentages may rise over 100%. A very strong activity of a compound will inhibit both the activity stimulated by androgen and the basal sebum synthesis activity of the sebaceous gland.

sebum secretion = assay: inhibition of sebum secretion in humans; assay type: in vivo, human
penetration of the skin = assay type: in vivo, human; conditions: in humans
skin irritation = assay type: in vivo, human; conditions: in humans
[1] = test system: lipid synthesis in other organs; assay: lipid synthesis inhibition in organs other than the sebaceous glands; assay type: in vivo; conditions: animal tests
hormonal activity = hormonal activity in animal tests; assay type: in vivo

Row | SMILES | inhibition in vivo at 100 µg/day (ear sebaceous glands; Mesocricetus auratus) [%] | also measured
1 | O=C(OCCn1ccnc1)c1ccc(Cl)cc1 [4-ClC6 H4] |  | inhibition in vivo at 500 µg/day (ear sebaceous glands; Mesocricetus auratus): 49%
2 | CC1=C(/C=C/C(C)=C/C=C/C(C)=C/C(=O)OCCn2ccnc2)C(C)(C)CCC1 [retinoic acid, 2-(1H-imidazol-1-yl)-ethyl retinoate ethanedioate (2:1)] | 39 | 
3 | Cc1ccc(C(=O)OCCn2ccnc2)cc1 [4-CH3 C6 H4, maleate] |  | inhibition in vivo at 500 µg/day (ear sebaceous glands; Mesocricetus auratus): 92%
4 | CC(=O)OCCn1ccnc1 [CH3] | 82 | 
5 | CC(C)(C)c1ccc(C(=O)OCCn2ccnc2)cc1 [4-tBuC6 H4, base] | 67 | 
6 | O=C(OCCn1ccnc1)c1ccccc1 [C6 H5, 2-(1H-imidazol-1-yl)-ethyl benzoate] | 82 | inhibition of the sebum secretion (sebum secretion): good inhibition of the sebum secretion; penetration of the skin (penetration of the skin): good penetration of the skin; irritation (skin irritation): little irriation; lipid synthesis inhibition in other organs [1]: no lipid synthesis inhibition in other organs; hormonal activity (hormonal activity): no lipid synthesis inhibition in other organs or hormonal activity were found
7 | O=C(O)/C=C\C(=O)O.O=C(OCCn1ccnc1)c1ccc(Cl)cc1Cl [2,4-Cl2 C6 H3, maleate, 2-(1H-imidazol-1-yl)-ethyl 2,4-dichlorobenzoate (Z)-2-butenedioate(1:1)] |  | lipid synthesis inhibition (ear sebaceous glands): 37%
8 | O=C(CCc1ccccc1)OCCn1ccnc1 [C6 H5 (CH2)2] | 76 | 
9 | CC(C)(C)c1ccc(C(=O)OCCn2ccnc2)cc1 [4-tBuC6 H4, HCl] |  | inhibition in vivo at 500 µg/day (ear sebaceous glands; Mesocricetus auratus): 81%
10 | O=C(OCCn1ccnc1)c1ccncc1 [4-pyridyl] | 44 | 
11 | Cc1ccc(C(=O)OCCn2ccnc2)cc1 [4-CH3 C6 H4, base] | 91 | 
12 | O=C(C=Cc1ccccc1)OCCn1ccnc1 [C6 H5 --CH=CH] | 59 | 
13 | O=C(OCCn1ccnc1)c1ccc(C(F)(F)F)cc1 [4-CF3 C6 H4] |  | inhibition in vivo at 500 µg/day (ear sebaceous glands; Mesocricetus auratus): 70%
14 | OCCn1ccnc1 [imidazolethanol, 1H-imidazole-1-ethanol] |  | inhibition in vivo at 1000 µg/day (ear sebaceous glands; Mesocricetus auratus, read-out: lipid synthesis inhibition): 37%
15 | O=C(OCCn1ccnc1)c1ccc(Cl)cc1Cl [2,4-Cl2 C6 H3, base] |  | lipid synthesis inhibition (ear sebaceous glands): 60%
16 | CC(C)(C)C(=O)OCCn1ccnc1 [(CH3)3 --C--] | 72 | 
17 | CCCCCCCCCCCCCCCC(=O)OCCn1ccnc1 [CH3 (CH2)14 --, 2-(1H-imidazol-1-yl)-ethyl hexadecanoate ethanedioate (1:1)] | 44 | 
18 | CCCC(=O)OCCn1ccnc1 [(CH2)2 CH3] | 106 | 
19 | O=C(OCCn1ccnc1)c1cccs1 [2-thiophene, 2-(1H-imidazol-1-yl)-ethyl 2-thiophenecarboxylate] | 89 | 
20 | COc1ccc(C(=O)OCCn2ccnc2)cc1 [4-CH3 OC6 H4] | 83 | 
